{"source": "patent US20230150920A1", "about": "“SALTS AND SOLID FORMS OF 4-BROMO-2,5-DIMETHOXYPHENETHYLAMINE” (priority 2021, published 2023)", "key": {"[1]": {"details": "for recrystallization of non-crystalline material upon heating (XRPD): heated at ~110° C. for 10 minutes"}, "[2]": {"details": "93% RH, RT"}, "[3]": {"test": "Dynamic vapor sorption (DVS) with XRPD of the post-DVS sample", "format": "physicochemical", "details": "for hygroscopicity based on DVS data: 5 to 95% RH; for moisture gain by DVS: adsorption 5 to 95% RH; for behaviour on desorption / form change by XRPD of post-DVS sample: desorption 95 to 5% RH", "how_it_was_run": "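Sample (about 2-25 mg depending on run) held at 25° C. and stepped in 10% RH increments 5→95% RH (adsorption) then 95→5% RH (desorption). Each step advanced at 0.01% weight change (in 5 min for later runs) or after a maximum of 1 h or 90 min; percent weight change reported.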"}, "[4]": {"details": "Vapor stress, RT", "description": "The sample was then centrifuged, while still warm, and the mother liquor was decanted. The isolated solids were air-dried and analyzed by XRPD."}, "[5]": {"details": "25° C., listed as Non-crystalline 2C-B tartrate"}, "[6]": {"details": "25° C., listed as non-crystalline 2C-B tartrate"}}, "note": "Entries after “also recorded” stand apart in the source; their conditions may differ. Like-named read-outs stand apart in the source and are kept apart here.", "data": [{"smiles": "COc1cc(CCN)c(OC)cc1Br.O=C(O)C(O)C(O)C(=O)O", "note": "[non-crystalline 2C-B Tartrate, 4-bromo-2,5-dimethoxyphenethylamine (2C-B) tartrate]", "values": [{"measurement": "XRPD result after heat stress", "setting": "[1]; 60° C., 9 d", "value": "NC + br pk (23°)"}, {"measurement": "XRPD result after heat stress", "setting": "[1]; 110° C., 10 min.", "value": "Tartrate (Form 1) +"}, {"measurement": "recrystallization of non-crystalline material upon heating (XRPD)", "setting": "[1]", "value": "recrystallizes to Tartrate (Form 1) upon heating; also recorded: crystallized to 2C-B Tartrate (Form 1)"}, {"measurement": "recrystallization of non-crystalline material upon heating (XRPD)", "setting": "[1]; listed as non-crystalline tartrate", "value": "crystallization to Tartrate (Form 1) was observed by XRPD"}, {"measurement": "XRPD result after humidity stress", "setting": "[2]", "value": "Tartrate (Form 1)"}, {"measurement": "hygroscopicity based on DVS data", "setting": "[3]; [5]", "value": "hygroscopic"}, {"measurement": "hygroscopicity based on DVS data", "setting": "[3]; [6]", "value": "hygroscopic"}, {"measurement": "moisture gain by DVS", "setting": "[3]; [5]", "value": 11.7, "unit": "%"}, {"measurement": "moisture gain by DVS", "setting": "[3]; [6]", "value": 11.7, "unit": "%"}, {"measurement": "moisture gain by DVS above 55% RH", "setting": "[3]; above 55% RH", "value": 9.7, "unit": "%"}, {"measurement": "behaviour on desorption / form change by XRPD of post-DVS sample", "setting": "[3]; listed as Non-crystalline 2C-B tartrate", "value": "remained non-crystalline"}, {"measurement": "behaviour on desorption / form change by XRPD of post-DVS sample", "setting": "[3]; listed as non-crystalline 2C-B tartrate", "value": "remains non-crystalline"}, {"measurement": "DVS desorption weight loss, 95-5% RH", "setting": "[3]; desorption, 95-5% RH, 25° C.", "value": "95-5% RH: 12.3% loss"}, {"measurement": "post-DVS XRPD", "setting": "[3]; solids after DVS cycle, NC = non-crystalline, br pk = broad peak", "value": "NC + br pk (25°)"}, {"measurement": "DVS sorption, weight gain 5-55% RH", "setting": "[3]; sorption, 5-55% RH, 25° C.", "value": "5-55% RH: 2.0% gain"}, {"measurement": "DVS sorption total gain", "setting": "[3]; sorption, 5-95% RH, 25° C.", "value": "Total gain: 11.7%"}, {"measurement": "DVS sorption, weight gain 55-95% RH", "setting": "[3]; sorption, 55-95% RH, 25° C.", "value": "55-95% RH: 9.7% gain"}, {"measurement": "XRPD result after vapor stress", "setting": "[4]; EtOH", "value": "Tartrate (Form 1)"}, {"measurement": "XRPD result after vapor stress", "setting": "[4]; H2O", "value": "Tartrate (Form 1)"}, {"measurement": "XRPD result after vapor stress", "setting": "[4]; acetone", "value": "Tartrate (Form 1)"}]}]}
